According to ChEMBL document CHEMBL3137667, “[Drug-induced liver injury; fourteenth updated edition of the bibliographic database of liver injuries and related drugs]” (Gastroenterol Clin Biol, 2004):

How the values were obtained:
[1] = Highest frequency of moderate liver toxicity observed during clinical trials, expressed as a percentage. [column '% BIOL' in source]; settings: human
[2] = Highest frequency of acute liver toxicity observed during clinical trials, expressed as a percentage. [column '% AIGUE' in source]; settings: human
[3] = Comments (NB not yet translated). [column 'COMMENTAIRES' in source]; settings: human
[4] = Times to onset, minimal and maximal, observed in the indexed observations. [column 'DELAI' in source]; settings: human
[5] = Proposed mechanism(s) of liver damage. [column 'MEC' in source]; settings: human
[6] = human, serum
[7] = human, serum; remark: listed apart in the source
[8] = human
[9] = human; remark: listed apart in the source
[10] = human; remark: listed apart in the source
[11] = human, serum, 4383 h
[12] = human; remark: listed apart in the source
[13] = human; remark: listed apart in the source
[14] = human; remark: listed apart in the source
[15] = human; remark: listed apart in the source
[16] = human; remark: listed apart in the source
[17] = human; remark: listed apart in the source
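Throughout, for Hepatotoxicity (association with vascular disease): count of indexed literature references reporting vascular liver injury in humans, e.g. peliosis hepatitis, hepatic veno-occlusive disease or Budd-Chiari syndrome.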
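Throughout, for Hepatotoxicity (benign tumour): value is a count of indexed literature references citing a benign tumour confirmed by histopathology.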
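Throughout, for Hepatotoxicity (choleostasis): human cholestatic liver injury, shown by histopathology or by peak ALT or AST elevation over alkaline phosphatase ratio below 2, value counts indexed literature reports.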
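Throughout, for Hepatotoxicity (chronic liver disease): chronic liver injury confirmed by histopathology or persistently raised serum aminotransferase activity beyond 6 months, value given as the count of indexed literature references.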
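Throughout, for Hepatotoxicity (cirrhosis): value is a count of indexed literature references reporting cirrhosis confirmed by histopathology.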
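Throughout, for Hepatotoxicity (cytolytic): human cytolytic liver injury, shown by histopathology or by a ratio above 5 of peak ALT or AST elevation to alkaline phosphatase elevation, value counts indexed references.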
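Throughout, for Hepatotoxicity (granulomatous hepatitis): value is a count of indexed literature references reporting granulomatous liver disease confirmed by histopathology.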
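Throughout, for Hepatotoxicity (malignant tumour): malignant tumour confirmed by histopathology, value gives the count of indexed literature references reporting it.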
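Throughout, for Hepatotoxicity (severe hepatitis): human clinical data: severe hepatitis, meaning potentially life-threatening liver failure or clinically observed cases, the value counts how many indexed literature references report it.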
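Throughout, for Hepatotoxicity (steatosis): steatosis confirmed by histopathology, value is the count of indexed references.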

Compound	Hepatotoxicity (moderate) [1]	Hepatotoxicity (acute) [2]	Hepatotoxicity (comment) [3]	Hepatotoxicity (time to onset) [4]	Hepatotoxicity (mechanism) [5]	Hepatotoxicity (moderate) [6]	Hepatotoxicity (acute) [7]	Hepatotoxicity (cytolytic) [8]	Hepatotoxicity (choleostasis) [9]	Hepatotoxicity (severe hepatitis) [10]	Hepatotoxicity (chronic liver disease) [11]	Hepatotoxicity (cirrhosis) [12]	Hepatotoxicity (granulomatous hepatitis) [13]	Hepatotoxicity (association with vascular disease) [14]	Hepatotoxicity (steatosis) [15]	Hepatotoxicity (malignant tumour) [16]	Hepatotoxicity (benign tumour) [17]	Hepatotoxicity (moderate) ([1]; Liver)	Hepatotoxicity (acute) ([2]; Liver)	Hepatotoxicity (severe hepatitis) ([10]; Liver)
COc1ccc2[nH]cc(CCNC(C)=O)c2c1 [MELATONIN]	0%	0%	AC_ANTI-ML	3 weeks	Allergic	0	1	1	0	0	0	0	0	0	0	0	0			
CCCN(CCC)C(=O)Cc1c(-c2ccc(Cl)cc2)nc2ccc(Cl)cn12 [ALPIDEM]	0%	0%	AC_ANTI-N	1 month - 8 months	Allergic	0	5	4	0	5	0	0	0	0	0	0	0			
GEMTUZUMAB OZOGAMICIN	47.8%	38.3%	MVO	2 days - 6 months	Dose-dependant	7	11	10	2	1	0	0	0	19	0	0	0			
Nc1nnc(-c2cccc(Cl)c2Cl)c(N)n1 [LAMOTRIGINE]	7.7%	0%	DUCTOPENIE CHOLESTASE_PROLONGEE	5 days - 3 months	Allergic	7	17	12	1	9	0	0	0	0	0	0	0			
CN(C)CCCN1c2ccccc2Sc2ccccc21 [PROMAZINE]	0%	0%	RC/CHLORPROMAZINE	2 days - 2 months	Allergic	1	6	0	6	0	0	0	0	0	0	0	0			
CC1=C(C(=O)O)N2C(=O)[C@@H](NC(=O)[C@H](N)C3=CCC=CC3)[C@H]2SC1 [CEPHRADINE]	24.3%	0%	CHOLECYSTITE_A_EOSINOPHILES	3 weeks	Allergic	1	1	0	1	0	0	0	0	0	0	0	0			
CC(=O)Oc1cccc2c1C(=O)c1c(OC(C)=O)cc(C(=O)O)cc1C2=O [DIACEREIN]	0%	0%	AC_ANTI-N	10 days	Allergic	0	2	1	1	1	0	0	0	0	0	0	0			
Cc1ccc(C)c(OCCCC(C)(C)C(=O)O)c1 [GEMFIBROZIL]			I/LOVASTATINE	9 days - 12 days	Dose-dependant	24	1	1	0		0	0	0	0	1	0	0	10%	0%	0
CC(CN(C)C)CN1c2ccccc2CCc2ccccc21 (stereo not given) [TRIMIPRAMINE]	0%	0%	RC/DESIPRAMINE/CYAMEMAZINE	2 weeks - 3 weeks	Dose-dependant	2	2	1	0	0	0	0	0	0	0	0	0			
CCC(C)n1ncn(-c2ccc(N3CCN(c4ccc(OCC5COC(Cn6cncn6)(c6ccc(Cl)cc6Cl)O5)cc4)CC3)cc2)c1=O (stereo not given) [ITRACONAZOLE]	91.7%	30%	CHOLANGITE DUCTOPENIE HNF	5 days - 7 months	Dose-dependant	55	18	10	10	1	0	0	0	0	1	0	1			
